Where a SMILES comes first, the peptide text is derived from it. Bridges are numbered along the chain shown (N, C = ends).

Experiment [1] addresses T1, Neuronal acetylcholine receptor subunit alpha-7 (Rattus norvegicus, UniProt Q05941). As to the kind of experiment: Antagonist activity at rat alpha7 nAChR expressed in xenopus oocytes assessed as inhibition of Ach- induced response at -100 mV holding potential incubated for 200 secs followed by acetyl choline stimulation by two- electrode voltage-clamp based electrophysiological method. The experiment is classed as cell-based, Oocyte.

Experiment [2] concerns the target Neuronal acetylcholine receptor; alpha3/beta2 (Rattus norvegicus, UniProt P04757+P12390). The experiment in a line: Antagonist activity at rat alpha3beta2 nAChR expressed in xenopus oocytes assessed as inhibition of Ach- induced response at -70 mV holding potential preincubated for 5 mins followed by Ach stimulation by voltage-clamp based electrophysiological method. The experiment is classed as cell-based, Oocyte.

The target of experiment [3] is T1, Neuronal acetylcholine receptor subunit alpha-7. As to the kind of experiment: Antagonist activity at rat alpha7 nAChR expressed in xenopus oocytes assessed as inhibition of Ach- induced response at -70 mV holding potential preincubated for 5 mins followed by Ach stimulation by voltage-clamp based electrophysiological method. It counts as cell-based, Oocyte.
A short description of experiment [4]: Antagonist activity at rat alpha6/ alpha3beta2beta3 nAChR expressed in xenopus oocytes assessed as inhibition of Ach- induced response at -70 mV holding potential preincubated for 5 mins followed by Ach stimulation by voltage-clamp based electrophysiological method. It counts as cell-based. Particulars: Oocyte.
Experiment [5] addresses T2, Neuronal acetylcholine receptor; alpha3/beta4 (Rattus norvegicus, UniProt P04757+P12392). As to the kind of experiment: Antagonist activity at rat alpha3beta4 nAChR expressed in xenopus oocytes assessed as inhibition of Ach- induced response at -80 mV holding potential incubated for 200 secs followed by Ach stimulation by voltage-clamp based electrophysiological method. The experiment is classed as cell-based, Oocyte.

Experiment [6] addresses T1, Neuronal acetylcholine receptor subunit alpha-7. The experiment in a line: Antagonist activity at rat alpha7 nAChR expressed in xenopus oocytes assessed as inhibition of Ach- induced response at -80 mV holding potential incubated for 200 secs followed by Ach stimulation by voltage-clamp based electrophysiological method. The experiment is classed as cell-based, Oocyte.

Experiment [7] in a line: Antagonist activity at rat alpha6/ alpha3beta2beta3 nAChR.
The target in experiment [8] is T3, Nicotinic acetylcholine receptor alpha6/alpha3/beta4 (Homo sapiens, UniProt P30926+P32297+Q15825). As to the kind of experiment: Antagonist activity at rat alpha6/alpha3beta4 nAChR. The experiment is classed as protein-complex assay. Particulars: target entry is the homologue from another species.
T3 sequence (P30926 whole entry): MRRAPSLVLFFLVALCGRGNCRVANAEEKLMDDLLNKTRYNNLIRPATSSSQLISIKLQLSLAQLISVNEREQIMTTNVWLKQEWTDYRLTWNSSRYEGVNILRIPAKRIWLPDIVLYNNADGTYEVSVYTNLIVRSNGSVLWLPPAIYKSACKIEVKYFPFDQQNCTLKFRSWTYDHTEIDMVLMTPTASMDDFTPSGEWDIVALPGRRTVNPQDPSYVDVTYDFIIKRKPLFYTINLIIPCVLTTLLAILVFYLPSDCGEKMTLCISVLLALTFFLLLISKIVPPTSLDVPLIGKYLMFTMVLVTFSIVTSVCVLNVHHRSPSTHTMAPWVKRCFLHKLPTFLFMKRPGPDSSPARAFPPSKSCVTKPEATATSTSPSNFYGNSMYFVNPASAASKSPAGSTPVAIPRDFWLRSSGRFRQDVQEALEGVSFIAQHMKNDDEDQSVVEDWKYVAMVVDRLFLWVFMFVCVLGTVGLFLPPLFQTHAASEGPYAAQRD
T3 sequence (P32297 whole entry): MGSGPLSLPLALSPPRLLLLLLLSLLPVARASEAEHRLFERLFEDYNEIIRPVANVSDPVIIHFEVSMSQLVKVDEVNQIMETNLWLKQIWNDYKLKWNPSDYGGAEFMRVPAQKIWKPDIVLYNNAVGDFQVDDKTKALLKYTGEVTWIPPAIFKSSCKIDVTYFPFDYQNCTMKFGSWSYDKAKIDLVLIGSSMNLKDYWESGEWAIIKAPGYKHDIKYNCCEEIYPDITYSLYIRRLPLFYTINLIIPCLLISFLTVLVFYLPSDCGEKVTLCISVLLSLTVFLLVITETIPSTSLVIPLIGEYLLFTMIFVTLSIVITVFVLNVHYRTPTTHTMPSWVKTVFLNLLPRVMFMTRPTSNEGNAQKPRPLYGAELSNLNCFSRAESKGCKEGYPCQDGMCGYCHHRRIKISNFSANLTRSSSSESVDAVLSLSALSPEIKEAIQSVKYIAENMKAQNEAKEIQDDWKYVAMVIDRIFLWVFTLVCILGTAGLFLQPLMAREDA
T3 sequence (Q15825 whole entry): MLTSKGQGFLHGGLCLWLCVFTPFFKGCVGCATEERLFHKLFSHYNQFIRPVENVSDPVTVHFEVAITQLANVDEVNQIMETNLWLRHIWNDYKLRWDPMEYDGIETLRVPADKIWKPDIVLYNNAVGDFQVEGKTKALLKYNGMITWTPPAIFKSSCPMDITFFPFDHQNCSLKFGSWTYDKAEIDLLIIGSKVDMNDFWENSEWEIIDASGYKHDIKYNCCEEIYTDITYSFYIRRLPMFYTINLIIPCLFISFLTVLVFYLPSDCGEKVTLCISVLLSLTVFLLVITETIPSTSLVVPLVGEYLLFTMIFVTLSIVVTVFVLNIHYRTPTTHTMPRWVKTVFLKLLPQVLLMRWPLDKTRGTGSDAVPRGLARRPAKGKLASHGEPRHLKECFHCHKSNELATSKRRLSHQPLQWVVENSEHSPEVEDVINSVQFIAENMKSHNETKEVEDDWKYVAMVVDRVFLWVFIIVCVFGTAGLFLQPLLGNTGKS
Experiment [9] concerns the target T3, Nicotinic acetylcholine receptor alpha6/alpha3/beta4. As to the kind of experiment: Antagonist activity at rat alpha6/alpha3beta4 nAChR expressed in xenopus oocytes assessed as inhibition of Ach- induced response at -70 mV holding potential preincubated for 5 mins followed by Ach stimulation by voltage-clamp based electrophysiological method. The experiment is classed as cell-based, Oocyte.

The target of experiment [10] is T2, Neuronal acetylcholine receptor; alpha3/beta4. As to the kind of experiment: Antagonist activity at rat alpha3beta4 nAChR. The experiment is classed as protein-complex assay.
For experiment [11] the target is unchanged. As to the kind of experiment: Antagonist activity at rat alpha3beta4 nAChR expressed in xenopus oocytes assessed as inhibition of Ach- induced response at -70 mV holding potential preincubated for 5 mins followed by Ach stimulation by voltage-clamp based electrophysiological method. The experiment is classed as cell-based, Oocyte.

T1 sequence (Q05941 whole entry): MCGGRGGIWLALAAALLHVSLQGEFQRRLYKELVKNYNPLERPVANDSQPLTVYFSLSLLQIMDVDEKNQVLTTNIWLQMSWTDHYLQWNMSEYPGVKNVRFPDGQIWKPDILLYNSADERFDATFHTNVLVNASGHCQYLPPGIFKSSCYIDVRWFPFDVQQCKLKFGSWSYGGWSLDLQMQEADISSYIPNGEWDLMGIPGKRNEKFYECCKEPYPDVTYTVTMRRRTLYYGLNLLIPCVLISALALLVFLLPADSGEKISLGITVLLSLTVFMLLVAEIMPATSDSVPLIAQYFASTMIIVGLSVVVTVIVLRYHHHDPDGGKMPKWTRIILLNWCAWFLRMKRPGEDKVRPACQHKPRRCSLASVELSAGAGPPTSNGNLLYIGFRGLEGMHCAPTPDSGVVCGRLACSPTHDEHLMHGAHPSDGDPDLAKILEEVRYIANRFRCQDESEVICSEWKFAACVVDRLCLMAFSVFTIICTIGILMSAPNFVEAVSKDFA
T2 sequence (P04757 whole entry): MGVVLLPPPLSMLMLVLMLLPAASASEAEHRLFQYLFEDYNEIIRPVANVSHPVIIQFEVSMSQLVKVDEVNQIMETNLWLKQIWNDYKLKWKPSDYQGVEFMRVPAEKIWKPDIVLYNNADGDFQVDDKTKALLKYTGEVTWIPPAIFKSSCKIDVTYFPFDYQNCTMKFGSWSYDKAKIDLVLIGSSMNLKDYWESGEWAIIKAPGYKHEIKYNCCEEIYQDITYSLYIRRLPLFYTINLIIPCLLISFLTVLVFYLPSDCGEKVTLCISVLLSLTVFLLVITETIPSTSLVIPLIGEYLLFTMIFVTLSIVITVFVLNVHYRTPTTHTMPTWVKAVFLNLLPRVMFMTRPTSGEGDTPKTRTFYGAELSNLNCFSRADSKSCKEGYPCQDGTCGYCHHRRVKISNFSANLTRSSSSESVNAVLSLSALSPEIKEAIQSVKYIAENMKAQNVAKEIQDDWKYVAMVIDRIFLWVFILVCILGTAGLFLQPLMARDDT
T2 sequence (P12392 whole entry): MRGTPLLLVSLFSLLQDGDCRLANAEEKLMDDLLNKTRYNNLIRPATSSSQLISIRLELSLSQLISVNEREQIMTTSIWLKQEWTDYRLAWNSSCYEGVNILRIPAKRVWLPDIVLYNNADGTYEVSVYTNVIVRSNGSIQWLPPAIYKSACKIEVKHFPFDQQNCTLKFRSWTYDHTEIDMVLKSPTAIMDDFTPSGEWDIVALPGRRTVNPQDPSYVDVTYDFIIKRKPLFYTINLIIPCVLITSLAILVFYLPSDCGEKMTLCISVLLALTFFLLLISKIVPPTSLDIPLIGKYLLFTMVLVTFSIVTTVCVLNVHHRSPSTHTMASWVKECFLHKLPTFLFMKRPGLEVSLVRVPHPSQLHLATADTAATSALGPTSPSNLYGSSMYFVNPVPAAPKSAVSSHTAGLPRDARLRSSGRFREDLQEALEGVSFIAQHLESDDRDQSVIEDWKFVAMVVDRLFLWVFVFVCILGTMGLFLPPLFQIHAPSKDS
Neuronal acetylcholine receptor; alpha3/beta2, sequence (P04757 whole entry): as the sequence (P04757 whole entry) above
Neuronal acetylcholine receptor; alpha3/beta2, sequence (P12390 whole entry): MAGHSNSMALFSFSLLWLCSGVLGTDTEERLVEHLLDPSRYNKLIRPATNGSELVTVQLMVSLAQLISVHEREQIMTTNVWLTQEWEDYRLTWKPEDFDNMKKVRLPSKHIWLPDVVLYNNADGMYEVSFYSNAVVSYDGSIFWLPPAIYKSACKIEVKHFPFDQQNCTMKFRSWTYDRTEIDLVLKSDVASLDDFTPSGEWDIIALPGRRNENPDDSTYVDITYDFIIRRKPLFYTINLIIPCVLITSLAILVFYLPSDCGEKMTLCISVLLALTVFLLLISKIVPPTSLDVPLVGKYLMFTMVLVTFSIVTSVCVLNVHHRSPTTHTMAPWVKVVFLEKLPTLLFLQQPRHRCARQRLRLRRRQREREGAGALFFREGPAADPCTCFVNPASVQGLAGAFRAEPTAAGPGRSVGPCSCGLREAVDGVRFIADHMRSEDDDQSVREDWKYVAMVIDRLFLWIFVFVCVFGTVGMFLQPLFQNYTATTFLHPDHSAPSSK

As a reminder, the IC50 is the concentration that inhibits the measured activity by half. On to `C[C@@H]1NC(=O)[C@@H]2CSSC[C@H](NC(=O)CN)C(=O)N[C@@H](CSSC[C@@H](C(N)=O)NC(=O)[C@H](CCCNC(=N)N)NC(=O)[C@H](Cc3c[nH]c4ccccc34)NC1=O)C(=O)N[C@@H](CO)C(=O)N[C@@H](CC(=O)O)C(=O)N1CCC[C@H]1C(=O)N[C@@H](CCCNC(=N)N)C(=O)N2`, for which, in [1], the IC50 worked out at 69 nM.
Regarding `CC(C)[C@@H]1NC(=O)[C@H](Cc2cnc[nH]2)NC(=O)[C@@H]2CCCN2C(=O)[C@H](CC(N)=O)NC(=O)[C@H](CC(N)=O)NC(=O)[C@H](C(C)C)NC(=O)[C@H](CCCNC(=N)N)NC(=O)[C@H]2CSSC[C@H](NC(=O)[C@H](CCC(=O)O)NC(=O)[C@@H](N)CC(=O)O)C(=O)N[C@@H](CSSC[C@@H](C(=O)N[C@@H](CCCNC(=N)N)C(=O)N[C@@H](CCCNC(=N)N)C(=O)N[C@@H](CCCNC(=N)N)C(=O)O)NC1=O)C(=O)N[C@@H](CO)C(=O)N[C@@H](CC(N)=O)C(=O)N1CCC[C@H]1C(=O)N[C@@H](C)C(=O)N2`, the IC50 in experiment [2] stood at 6 nM; in experiment [3], 2 nM; in experiment [4], 60 nM.
Consider `C[C@H](N)C(=O)N[C@H]1CSSC[C@@H]2NC(=O)[C@H](CCCNC(=N)N)NC(=O)[C@H](CCCNC(=N)N)NC(=O)[C@H](CC(=O)O)NC(=O)[C@H](CO)NC(=O)[C@H](CSSC[C@H](C(N)=O)NC(=O)[C@H](CCCNC(=N)N)NC(=O)[C@H](Cc3c[nH]c4ccccc34)NC(=O)[C@H](CCCNC(=N)N)NC2=O)NC1=O`, for which, in experiment [3], the IC50 was determined as 440 nM.
With `CC(C)[C@@H]1NC(=O)[C@H](Cc2cnc[nH]2)NC(=O)[C@@H]2CCCN2C(=O)[C@H](CC(N)=O)NC(=O)[C@H](CC(N)=O)NC(=O)[C@H](C(C)C)NC(=O)[C@H](CCCNC(=N)N)NC(=O)[C@@H]2CSSC[C@H](NC(=O)[C@H](CCC(=O)O)NC(=O)[C@@H](N)CC(=O)O)C(=O)N[C@@H](CSSC[C@@H](C(=O)N[C@@H](CCCNC(=N)N)C(=O)N[C@@H](CCCNC(=N)N)C(=O)N[C@@H](CCCNC(=N)N)C(=O)O)NC1=O)C(=O)N[C@@H](CO)C(=O)N[C@@H](CC(N)=O)C(=O)N1CCC[C@H]1C(=O)N[C@@H](C)C(=O)N2`, the concentration for half-maximal inhibition (IC50) was found to be 3 nM in experiment [5] and 5 nM in experiment [6].
With `CC(C)C[C@@H]1NC(=O)[C@H](C(C)C)NC(=O)[C@H](C)NC(=O)[C@@H]2CSSC[C@H](NC(=O)CN)C(=O)N[C@@H](CSSC[C@H](C(=O)NCC(=O)O)NC(=O)[C@H](Cc3ccc(O)cc3)NC1=O)C(=O)N[C@@H](CO)C(=O)N[C@@H]([C@@H](C)O)C(=O)N1CC(O)C[C@H]1C(=O)N1CCC[C@H]1C(=O)N2` (stereo partly specified), the IC50 in [7] was found to be 1300 nM; in [8], 12 nM.
`CC(C)C[C@@H]1NC(=O)[C@H](C(C)C)NC(=O)[C@H](C)NC(=O)[C@@H]2CSSC[C@H](NC(=O)CN)C(=O)N[C@@H](CSSC[C@H](C(=O)NCC(=O)O)NC(=O)[C@H](Cc3ccc(O)cc3)NC1=O)C(=O)N[C@@H](CO)C(=O)N[C@@H]([C@@H](C)O)C(=O)N1CCC[C@H]1C(=O)N1CCC[C@H]1C(=O)N2`: the IC50 in experiment [2] amounted to 5.7 nM; in experiment [9], 1.5 nM; in [10], 37.7 nM; in experiment [4] it was 0.258 nM.
On to `CC(C)C[C@@H]1NC(=O)[C@H](C(C)C)NC(=O)[C@H](C)NC(=O)[C@@H]2CSSC[C@H](NC(=O)CN)C(=O)N[C@@H](CSSC[C@H](C(=O)NCC(=O)O)NC(=O)[C@H](Cc3ccc(O)cc3)NC1=O)C(=O)N[C@@H](CO)C(=O)N[C@@H](C)C(=O)N1CC(O)C[C@H]1C(=O)N1CCC[C@H]1C(=O)N2` (stereo partly specified), for which the IC50 came out at 1200 nM in [11] and 58.1 nM in experiment [9].
As to `CC[C@H](C)[C@@H]1NC(=O)[C@H](Cc2cnc[nH]2)NC(=O)[C@@H]2CCCN2C(=O)[C@H](CC(N)=O)NC(=O)[C@H](CC(N)=O)NC(=O)[C@H](C(C)C)NC(=O)[C@H](CC(N)=O)NC(=O)[C@@H]2CSSC[C@H](NC(=O)CN)C(=O)N[C@@H](CSSC[C@@H](C(=O)NCC(N)=O)NC1=O)C(=O)N[C@@H](CO)C(=O)N[C@@H](Cc1cnc[nH]1)C(=O)N1CCC[C@H]1C(=O)N[C@@H](C)C(=O)N2` (H-GCCSHPACNVNNPHICG-NH2; disulfide 2-8, 3-16), the IC50 in experiment [3] amounted to 27 nM.

The record behind these values is ChEMBL document CHEMBL5055626 (J Med Chem, 2021).
